In article doi:10.1101/2024.08.25.609621 (bioRxiv, 2024):
Where “and” joins values, the source holds several entries; their conditions need not be identical. Identical values can stand only once. Like-named read-outs stand apart in the source and are kept apart here.

Assays:
[1] = target: SARS-CoV-2 NSP3 macrodomain (Mac1) (Severe acute respiratory syndrome coronavirus 2, UniProt P0DTD1); assay: biochemical; format: binding; conditions: for Hill slope: HTRF dose-response fit, Mac1; for SARS CoV-2 macrodomain HTRF assay: Hillslope: dose-response fit
[2] = target: SARS-CoV-2 NSP3 macrodomain (Mac1), P43 crystal form (Severe acute respiratory syndrome coronavirus 2, UniProt P0DTD1); format: binding; conditions: for 1-BDC: PanDDA background density correction; for Total number of conformations: ligand conformations modeled in Mac1 crystal structure; for X-ray crystallography: Binding site: site where the ligand is bound in the X-ray crystal structure
[3] = occupancy estimate from PanDDA BDC
[4] = crystal soak concentration 10 mM, DMSO background map, event 1
[5] = crystal soak concentration 10 mM, P43 crystals
[6] = crystal soak concentration 10 mM, DMSO background map
[7] = crystal soak, soak concentration 10 mM
[8] = Single dose, concentration 200 μM, read-out: SARS CoV-2 macrodomain HTRF assay: Average % competition
[9] = preliminary screen, compound at 200 μM, mean of 3-4 technical replicates, read-out: % competition in HTRF assay
[10] = crystal soak, soak concentration 10 mM, TRUE = ligand hit
[11] = occupancy estimate from PanDDA 1-BDC
[12] = soak concentration 10 mM, DMSO background map

Row | SMILES | Hill slope [1] | SARS CoV-2 macrodomain HTRF assay: Hillslope [1] | Occupancy difference (refined_occupancy - 2*(1-BDC)) [2] | Refined ligand occupancy (%) [2] | 1-BDC [2] | Total number of conformations [2] | 2*(1-BDC) (%) [2, 3] | X-ray crystallography: Binding site [2] | PanDDA run, DMSO background map: 1-BDC [2, 4] | Pandda run, overall: Hit [2, 5] | Pandda run, overall: Modeled [2, 5] | Pandda run, overall: Modeling comment [2, 5] | PanDDA run, DMSO background map: Hit [2, 6] | PanDDA run, DMSO background map: Modeled [2, 6] | further results
1 | CC1(C)CCN(c2ncnc3[nH]ccc23)C(CO)C1 (stereo not shown) [AVI-5994] | 1.2 | 1.2 | 0 | 46% | 0.23 | 2 | 46% | Adenosine | – | – | – | – | – | – | PanDDA run, DMSO background map: 1-BDC ([2]; DMSO background map, event 1): 0.23 and 0.27; Comment ([2]; comment on ligand modeling / Phe132 loop density): Weak density for open state of Phe132 loop
2 | Cc1c[nH]c2ncnc(NCC3(O)CCC(O)CC3)c12 (stereo not shown) [AVI-4329] | – | – | 12 | 30% | 0.09 | 2 | 18% | Adenosine | 0.09 and 0.11 | TRUE | TRUE | Duplicate, not modeled | TRUE | TRUE | IC50 ([1]; dose-response, read-out: SARS CoV-2 macrodomain HTRF assay: IC50): > 1000 µM
3 | CCn1c(C)nnc1Sc1cnc2ccccc2n1 [AVI-297] | – | – | – | – | – | – | – | – | – | – | – | – | – | – | Average % competition ([1]; Single dose, 200 μM, mean of three technical replicates): 0%; Pandda run, overall: Modeling comment [2, 7]: Only density for quinoxaline, not modeled; Pandda run, overall: Hit ([2]; crystal soak, soak concentration 10 mM, P43 crystals, TRUE = ligand-binding event identified): TRUE; PanDDA run, DMSO background map: Hit ([2]; crystal soak, soak concentration 10 mM, DMSO background map): TRUE; PanDDA run, DMSO background map: 1-BDC ([2]; crystal soak, soak concentration 10 mM, DMSO background map, event 1): 0.05
4 | OC1(CNc2ncnc3[nH]ccc23)CCCSC1 (stereo not shown) [AVI-4322] | 1.3 | 1.3 | 0 | 42% | 0.21 | 1 | 42% | Adenosine | – | – | – | – | – | – | PanDDA run, DMSO background map: 1-BDC ([2]; DMSO background map, event 1): 0.21
5 | Cc1c[nH]c2ncnc(NCC3(O)CCSCC3)c12 [AVI-4195, 4-(((5-methyl-7H-pyrrolo[2,3-d]pyrimidin-4-yl)amino)methyl)tetrahydro-2H-thiopyran-4-ol] | 1.2 | 1.2 | 0 | 28% | 0.14 | 1 | 28% | Adenosine | 0.14 | TRUE | TRUE | Duplicate, not modeled | TRUE | TRUE | –
6 | Cc1c[nH]c2ncnc(NCC3(O)CCOCC3)c12 [AVI-4194, 4-(((5-methyl-7H-pyrrolo[2,3-d]pyrimidin-4-yl)amino)methyl)tetrahydro-2H-pyran-4-ol] | 1.3 | 1.3 | 0 | 18% | 0.09 | 1 | 18% | Adenosine | 0.13 and 0.09 | TRUE | TRUE | Duplicate, not modeled | TRUE | TRUE | –
7 | OC1CCC(O)(CNc2ncnc3[nH]ccc23)CC1 (stereo not shown) [AVI-6220] | 1.3 | 1.3 | 0 | 14% | 0.07 | 2 | 14% | Adenosine | – | – | – | – | – | – | PanDDA run, DMSO background map: 1-BDC ([2]; DMSO background map, event 1): 0.07
8 | CC(C)(O)C1N(c2ncnc3[nH]ccc23)CCC1(C)C (stereo not shown) [AVI-4126] | 1.3 | 1.3 | 8 | 40% | 0.16 | 2 | 32% | Adenosine | 0.17 and 0.16 | TRUE | TRUE | Duplicate, not modeled | TRUE | TRUE | Phe132 loop open state [2]: TRUE
9 | OC[C@@H]1C[C@H](O)CN1c1ncnc2[nH]ccc12 [AVI-610] | 1.2 | 1.2 | – | – | 0.21 | 1 | – | Adenosine | – | – | – | – | – | – | inhibition at 200 µM [1, 8]: 56%; inhibition at 200 µM [1, 9]: 56%; Pandda run, overall: Modeled [2, 7]: TRUE; Pandda run, overall: Hit [2, 10]: TRUE; 2*(1-BDC) (%) [2, 11]: 42%; PanDDA run, DMSO background map: 1-BDC [2, 12]: 0.34 and 0.31 and 0.21 and 0.26; PanDDA run, DMSO background map: Hit [2, 12]: TRUE
10 | CC(O)C1CCCN1c1ncnc2[nH]ccc12 (stereo not shown) [AVI-4062] | 1.1 | 1.1 | 18 | 70% | 0.26 | 1 | 52% | Adenosine | – | – | – | – | – | – | Hit (PanDDA run, overall) ([2]; crystal soak 10 mM, P43 crystals): TRUE; Hit (PanDDA run, DMSO background map) ([2]; crystal soak 10 mM, DMSO background map): TRUE; 1-BDC (PanDDA run, DMSO background map) ([2]; crystal soak 10 mM, DMSO background map, event 1): 0.26 and 0.29
11 | O=C(O)C(F)(F)F.OC1([C@H]2CCCN2c2ncnc3[nH]ccc23)Cc2ccccc2C1 [AVI-3731] | 1.1 | 1.1 | – | – | 0.2 | 1 | – | Adenosine | – | – | – | – | – | – | inhibition at 200 µM [1, 8]: 100%; inhibition at 200 µM [1, 9]: 100%; Pandda run, overall: Modeled [2, 7]: TRUE; Pandda run, overall: Hit [2, 10]: TRUE; 2*(1-BDC) (%) [2, 11]: 40%; PanDDA run, DMSO background map: 1-BDC [2, 12]: 0.2; PanDDA run, DMSO background map: Hit [2, 12]: TRUE
12 | CC1(C)C[C@@H](CO)N(c2ncnc3[nH]ccc23)C1.O=C(O)C(F)(F)F [AVI-3704] | 1.1 | 1.1 | – | – | 0.33 | 1 | – | Adenosine | – | – | – | – | – | – | inhibition at 200 µM [1, 8]: 90%; inhibition at 200 µM [1, 9]: 90%; Pandda run, overall: Modeled [2, 7]: TRUE; Pandda run, overall: Hit [2, 10]: TRUE; 2*(1-BDC) (%) [2, 11]: 66%; PanDDA run, DMSO background map: 1-BDC [2, 12]: 0.33; PanDDA run, DMSO background map: Hit [2, 12]: TRUE
